In ChEMBL document CHEMBL5653615 (J Biol Chem, 2013):

Tests used:
[1] = target: Cyclin-dependent kinase 4/cyclin D1 (Homo sapiens) (UniProt P11802+P24385); assay: Inhibition of human CDK4/cyclin D1 at 500 nM by HotSpot assay relative to control; format: protein-complex assay
[2] = target: MAP/microtubule affinity-regulating kinase 3 (Homo sapiens) (UniProt P27448); assay: Inhibition of human MARK3 at 500 nM by HotSpot assay relative to control
[3] = target: Serine/threonine-protein kinase 33 (Homo sapiens) (UniProt Q9BYT3); assay: Inhibition of human STK33 at 500 nM by HotSpot assay relative to control
Chain of Serine/threonine-protein kinase 33 (Homo sapiens) (Q9BYT3 whole entry, looked up): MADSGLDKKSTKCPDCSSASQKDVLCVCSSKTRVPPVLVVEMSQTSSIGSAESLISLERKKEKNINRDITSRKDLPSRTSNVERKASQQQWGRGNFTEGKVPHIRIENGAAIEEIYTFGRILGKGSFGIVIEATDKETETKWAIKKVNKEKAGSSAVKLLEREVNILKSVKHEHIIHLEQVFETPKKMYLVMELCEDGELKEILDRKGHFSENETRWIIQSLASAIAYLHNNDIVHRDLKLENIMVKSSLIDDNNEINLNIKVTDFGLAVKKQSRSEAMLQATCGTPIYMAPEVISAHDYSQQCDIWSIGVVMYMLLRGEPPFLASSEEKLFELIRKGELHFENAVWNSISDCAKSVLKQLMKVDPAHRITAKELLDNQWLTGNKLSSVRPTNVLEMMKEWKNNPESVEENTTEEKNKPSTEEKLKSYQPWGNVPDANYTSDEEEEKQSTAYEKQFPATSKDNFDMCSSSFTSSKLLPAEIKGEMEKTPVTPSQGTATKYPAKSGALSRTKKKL

[4] = target: Serine/threonine-protein kinase PAK 5 (Homo sapiens) (UniProt Q9P286); assay: Inhibition of human PAK5 at 500 nM by HotSpot assay relative to control
Chain of Serine/threonine-protein kinase PAK 5 (Homo sapiens) (Q9P286 whole entry, looked up): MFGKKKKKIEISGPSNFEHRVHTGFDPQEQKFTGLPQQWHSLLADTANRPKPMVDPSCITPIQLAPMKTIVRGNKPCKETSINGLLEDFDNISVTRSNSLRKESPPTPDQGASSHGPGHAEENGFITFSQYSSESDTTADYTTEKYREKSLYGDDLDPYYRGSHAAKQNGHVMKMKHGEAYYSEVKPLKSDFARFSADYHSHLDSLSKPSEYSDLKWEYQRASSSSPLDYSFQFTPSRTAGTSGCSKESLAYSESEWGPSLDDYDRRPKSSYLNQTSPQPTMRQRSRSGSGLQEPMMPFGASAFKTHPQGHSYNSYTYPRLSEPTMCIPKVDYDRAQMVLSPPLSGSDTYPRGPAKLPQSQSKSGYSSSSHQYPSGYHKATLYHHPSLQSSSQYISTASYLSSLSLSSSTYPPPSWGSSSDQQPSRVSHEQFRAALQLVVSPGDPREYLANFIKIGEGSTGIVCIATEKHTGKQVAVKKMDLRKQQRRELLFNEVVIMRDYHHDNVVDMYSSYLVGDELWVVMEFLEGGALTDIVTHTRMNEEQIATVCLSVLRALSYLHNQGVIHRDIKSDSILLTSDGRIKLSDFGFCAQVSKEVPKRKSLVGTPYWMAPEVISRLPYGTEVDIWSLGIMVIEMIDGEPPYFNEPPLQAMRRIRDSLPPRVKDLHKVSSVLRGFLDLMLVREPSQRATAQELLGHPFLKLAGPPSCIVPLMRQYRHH

[5] = target: Ephrin type-A receptor 4 (Homo sapiens) (UniProt P54764); assay: Inhibition of human EPHA4 at 500 nM by HotSpot assay relative to control
Chain of Ephrin type-A receptor 4 (Homo sapiens) (P54764 whole entry): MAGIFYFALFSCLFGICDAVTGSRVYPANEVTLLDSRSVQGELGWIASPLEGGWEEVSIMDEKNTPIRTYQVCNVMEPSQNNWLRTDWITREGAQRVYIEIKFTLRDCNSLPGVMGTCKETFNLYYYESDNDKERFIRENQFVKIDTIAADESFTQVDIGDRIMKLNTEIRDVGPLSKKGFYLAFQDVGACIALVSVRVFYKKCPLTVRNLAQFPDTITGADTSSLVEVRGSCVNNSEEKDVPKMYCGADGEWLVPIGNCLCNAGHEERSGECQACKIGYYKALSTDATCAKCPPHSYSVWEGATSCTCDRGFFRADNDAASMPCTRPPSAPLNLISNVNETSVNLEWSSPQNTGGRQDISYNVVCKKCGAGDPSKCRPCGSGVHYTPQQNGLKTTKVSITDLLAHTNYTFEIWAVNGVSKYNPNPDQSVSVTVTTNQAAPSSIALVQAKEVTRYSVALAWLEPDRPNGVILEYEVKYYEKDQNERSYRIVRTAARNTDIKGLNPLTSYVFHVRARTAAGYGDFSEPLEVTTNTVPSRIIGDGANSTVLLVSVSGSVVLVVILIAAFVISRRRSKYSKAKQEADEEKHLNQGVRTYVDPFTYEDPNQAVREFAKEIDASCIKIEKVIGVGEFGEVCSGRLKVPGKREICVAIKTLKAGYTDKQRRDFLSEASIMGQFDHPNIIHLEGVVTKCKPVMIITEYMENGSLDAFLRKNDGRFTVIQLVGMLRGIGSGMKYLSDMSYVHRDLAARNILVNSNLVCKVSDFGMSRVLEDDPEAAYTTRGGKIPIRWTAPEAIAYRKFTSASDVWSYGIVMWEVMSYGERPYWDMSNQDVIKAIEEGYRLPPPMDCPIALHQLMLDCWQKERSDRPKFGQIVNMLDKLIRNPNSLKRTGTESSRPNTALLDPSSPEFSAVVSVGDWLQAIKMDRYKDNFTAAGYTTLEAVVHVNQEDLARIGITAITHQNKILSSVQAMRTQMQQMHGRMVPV

[6] = target: T1, 3-phosphoinositide-dependent protein kinase 1 (Homo sapiens) (UniProt O15530); assay: Inhibition of human PDPK1 at 500 nM by HotSpot assay relative to control
T1 sequence (whole entry): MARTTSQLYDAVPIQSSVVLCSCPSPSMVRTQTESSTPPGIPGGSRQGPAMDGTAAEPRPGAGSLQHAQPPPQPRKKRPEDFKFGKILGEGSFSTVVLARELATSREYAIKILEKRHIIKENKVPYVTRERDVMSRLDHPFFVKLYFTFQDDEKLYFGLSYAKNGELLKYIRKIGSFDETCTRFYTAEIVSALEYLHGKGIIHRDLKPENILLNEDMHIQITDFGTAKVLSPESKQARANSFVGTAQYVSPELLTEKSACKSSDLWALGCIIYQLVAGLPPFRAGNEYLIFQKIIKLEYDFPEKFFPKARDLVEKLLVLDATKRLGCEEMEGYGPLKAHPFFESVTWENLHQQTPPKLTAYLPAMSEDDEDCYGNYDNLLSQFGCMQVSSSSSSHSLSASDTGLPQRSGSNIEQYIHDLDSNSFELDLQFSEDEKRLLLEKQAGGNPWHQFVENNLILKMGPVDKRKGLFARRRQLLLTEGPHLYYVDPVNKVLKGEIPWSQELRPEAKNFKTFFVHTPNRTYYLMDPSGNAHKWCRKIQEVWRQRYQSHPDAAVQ

[7] = target: Tyrosine-protein kinase Srms (Homo sapiens) (UniProt Q9H3Y6); assay: Inhibition of human SRMS at 500 nM by HotSpot assay relative to control
Chain of Tyrosine-protein kinase Srms (Homo sapiens) (Q9H3Y6 whole entry): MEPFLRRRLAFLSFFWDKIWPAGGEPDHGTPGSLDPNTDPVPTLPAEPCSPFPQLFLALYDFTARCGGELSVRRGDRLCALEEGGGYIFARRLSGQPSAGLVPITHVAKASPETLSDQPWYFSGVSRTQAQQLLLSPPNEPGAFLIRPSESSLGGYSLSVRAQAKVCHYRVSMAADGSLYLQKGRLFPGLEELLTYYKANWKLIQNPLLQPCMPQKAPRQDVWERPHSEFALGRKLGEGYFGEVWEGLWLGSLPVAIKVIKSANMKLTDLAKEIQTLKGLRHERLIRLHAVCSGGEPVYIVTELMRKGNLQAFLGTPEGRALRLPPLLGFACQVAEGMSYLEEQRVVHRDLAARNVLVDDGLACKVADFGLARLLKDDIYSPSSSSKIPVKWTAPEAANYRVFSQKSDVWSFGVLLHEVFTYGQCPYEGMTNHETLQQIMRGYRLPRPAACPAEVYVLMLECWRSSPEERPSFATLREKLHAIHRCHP

[8] = target: Rho-associated protein kinase 2 (Homo sapiens) (UniProt O75116); assay: Inhibition of human ROCK2 at 500 nM by HotSpot assay relative to control
Chain of Rho-associated protein kinase 2 (Homo sapiens) (O75116 whole entry, looked up): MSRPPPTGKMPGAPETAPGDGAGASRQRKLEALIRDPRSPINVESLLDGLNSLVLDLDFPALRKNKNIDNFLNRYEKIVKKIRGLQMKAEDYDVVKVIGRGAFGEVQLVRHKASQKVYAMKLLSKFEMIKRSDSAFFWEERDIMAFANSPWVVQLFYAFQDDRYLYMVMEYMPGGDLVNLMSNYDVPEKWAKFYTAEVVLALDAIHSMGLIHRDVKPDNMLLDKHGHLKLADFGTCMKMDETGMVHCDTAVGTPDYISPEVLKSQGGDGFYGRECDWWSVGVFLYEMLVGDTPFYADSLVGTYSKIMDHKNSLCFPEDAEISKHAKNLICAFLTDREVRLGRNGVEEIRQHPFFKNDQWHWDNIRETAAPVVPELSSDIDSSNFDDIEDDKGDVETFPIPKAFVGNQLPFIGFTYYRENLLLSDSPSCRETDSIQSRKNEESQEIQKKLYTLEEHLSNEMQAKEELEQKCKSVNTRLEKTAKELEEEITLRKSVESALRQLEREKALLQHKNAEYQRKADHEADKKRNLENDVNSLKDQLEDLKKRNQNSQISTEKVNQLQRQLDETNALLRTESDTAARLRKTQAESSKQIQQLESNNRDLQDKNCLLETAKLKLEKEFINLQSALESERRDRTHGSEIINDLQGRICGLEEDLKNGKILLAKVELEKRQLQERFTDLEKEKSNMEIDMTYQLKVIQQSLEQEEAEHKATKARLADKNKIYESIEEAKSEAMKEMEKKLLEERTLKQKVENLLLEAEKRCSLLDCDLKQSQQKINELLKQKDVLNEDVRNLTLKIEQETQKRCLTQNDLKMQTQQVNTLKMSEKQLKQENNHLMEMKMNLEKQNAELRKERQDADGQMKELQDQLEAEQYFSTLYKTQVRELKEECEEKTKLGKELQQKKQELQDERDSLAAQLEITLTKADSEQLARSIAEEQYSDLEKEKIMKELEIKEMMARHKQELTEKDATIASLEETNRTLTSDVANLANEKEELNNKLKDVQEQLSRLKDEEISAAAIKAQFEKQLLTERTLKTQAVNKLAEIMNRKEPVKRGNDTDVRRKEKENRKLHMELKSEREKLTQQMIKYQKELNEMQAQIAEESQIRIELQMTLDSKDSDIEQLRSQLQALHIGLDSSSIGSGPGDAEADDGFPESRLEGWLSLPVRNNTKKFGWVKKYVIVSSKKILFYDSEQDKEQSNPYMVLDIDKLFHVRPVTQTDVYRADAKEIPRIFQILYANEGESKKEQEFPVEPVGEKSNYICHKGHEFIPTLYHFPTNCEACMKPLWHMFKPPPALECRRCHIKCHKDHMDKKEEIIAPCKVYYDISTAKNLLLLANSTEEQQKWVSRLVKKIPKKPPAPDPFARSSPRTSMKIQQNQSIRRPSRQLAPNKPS

[9] = target: T2, Ephrin type-A receptor 3 (Homo sapiens) (UniProt P29320); assay: Inhibition of human EPHA3 at 500 nM by HotSpot assay relative to control
T2 sequence (whole entry): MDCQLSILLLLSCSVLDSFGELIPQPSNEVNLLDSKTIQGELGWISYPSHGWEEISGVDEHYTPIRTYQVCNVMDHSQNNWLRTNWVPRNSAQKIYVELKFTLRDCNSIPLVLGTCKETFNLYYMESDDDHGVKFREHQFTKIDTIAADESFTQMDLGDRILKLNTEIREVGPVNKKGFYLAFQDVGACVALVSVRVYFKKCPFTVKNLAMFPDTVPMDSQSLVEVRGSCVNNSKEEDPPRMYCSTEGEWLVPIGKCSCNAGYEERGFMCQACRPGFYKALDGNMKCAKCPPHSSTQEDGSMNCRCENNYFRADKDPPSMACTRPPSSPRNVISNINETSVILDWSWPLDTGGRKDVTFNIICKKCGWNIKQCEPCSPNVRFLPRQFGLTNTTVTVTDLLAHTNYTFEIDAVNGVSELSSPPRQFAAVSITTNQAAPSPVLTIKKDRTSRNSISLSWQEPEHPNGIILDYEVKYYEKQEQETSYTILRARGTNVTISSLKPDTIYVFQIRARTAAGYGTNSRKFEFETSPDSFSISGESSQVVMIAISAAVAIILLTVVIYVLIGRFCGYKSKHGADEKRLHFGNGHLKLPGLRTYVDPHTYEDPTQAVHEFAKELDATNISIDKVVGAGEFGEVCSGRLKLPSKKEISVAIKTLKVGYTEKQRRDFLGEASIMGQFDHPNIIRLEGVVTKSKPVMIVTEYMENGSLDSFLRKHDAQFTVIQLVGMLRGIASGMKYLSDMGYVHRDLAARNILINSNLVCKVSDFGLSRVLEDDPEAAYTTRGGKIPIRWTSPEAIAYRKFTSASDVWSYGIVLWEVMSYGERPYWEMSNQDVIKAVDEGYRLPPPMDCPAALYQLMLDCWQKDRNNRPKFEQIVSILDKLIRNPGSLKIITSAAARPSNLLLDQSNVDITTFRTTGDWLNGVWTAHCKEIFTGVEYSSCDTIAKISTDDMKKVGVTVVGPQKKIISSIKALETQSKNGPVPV

Chain of MAP/microtubule affinity-regulating kinase 3 (Homo sapiens) (P27448 whole entry, looked up): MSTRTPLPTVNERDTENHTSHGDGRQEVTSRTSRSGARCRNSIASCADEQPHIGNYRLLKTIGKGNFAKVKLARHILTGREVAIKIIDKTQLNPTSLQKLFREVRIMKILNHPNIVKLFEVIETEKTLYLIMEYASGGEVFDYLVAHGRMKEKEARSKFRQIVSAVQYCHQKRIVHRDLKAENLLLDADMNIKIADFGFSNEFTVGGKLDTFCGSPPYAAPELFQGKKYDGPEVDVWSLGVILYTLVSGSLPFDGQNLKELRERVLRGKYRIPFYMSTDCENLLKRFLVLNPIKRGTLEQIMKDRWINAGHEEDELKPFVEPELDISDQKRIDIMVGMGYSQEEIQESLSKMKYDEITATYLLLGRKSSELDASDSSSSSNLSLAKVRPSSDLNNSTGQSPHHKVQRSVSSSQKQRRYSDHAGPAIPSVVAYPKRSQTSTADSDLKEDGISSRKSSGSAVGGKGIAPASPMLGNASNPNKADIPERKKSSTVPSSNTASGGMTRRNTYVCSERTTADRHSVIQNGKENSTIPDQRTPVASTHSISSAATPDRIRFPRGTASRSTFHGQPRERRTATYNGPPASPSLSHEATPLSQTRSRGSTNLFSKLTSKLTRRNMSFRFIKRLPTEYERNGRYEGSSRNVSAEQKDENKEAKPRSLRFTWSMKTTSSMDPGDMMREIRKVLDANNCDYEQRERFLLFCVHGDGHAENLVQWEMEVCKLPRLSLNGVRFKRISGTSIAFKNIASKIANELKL

Nc1n[nH]c2nnc(-c3c(-c4ccccc4)nn4ccccc34)cc12
inhibition [1]: 10.8% | inhibition [2]: 0.66% | inhibition [3]: -0.39% | inhibition [4]: 1.83% | inhibition [5]: 14.1% | inhibition [6]: -3.56% | inhibition [7]: 7.04% | inhibition [8]: 10.4% | inhibition [9]: 2.18%

Oc1n[nH]c2nnc(-c3c(-c4ccccc4)nn4ccccc34)cc12
inhibition [1]: 1.57% | inhibition [2]: -2.48% | inhibition [3]: -0.22% | inhibition [4]: 11.6% | inhibition [5]: -8.13% | inhibition [6]: 7.43% | inhibition [7]: 0.83% | inhibition [8]: 0.7% | inhibition [9]: 5.45%
